Results published in PubChem BioAssay (NCI).
Several values for one entry are separate records, joined by “and”; a condition that tells them apart may be missing. Equal entries are not always repeated.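 Exposure lasted 48 hours, with cells grown in 96-well plates and compounds tested at five concentrations. GI50 marks 50% less growth. At the TGI there is no net growth.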

Legend:
Assay in all cases: NCI tumour cell line growth inhibition, 48 h
RXF-631 renal = test system: RXF-631 renal
LXFL 529 NSCLC = test system: LXFL 529 NSCLC
SNB-78 CNS = test system: SNB-78 CNS
DMS 114 small cell lung = test system: DMS 114 small cell lung
DMS 273 small cell lung = test system: DMS 273 small cell lung
XF 498 CNS = test system: XF 498 CNS
HOP-18 NSCLC = test system: HOP-18 NSCLC
DLD-1 colon = test system: DLD-1 colon
P388/ADR leukemia = test system: P388/ADR leukemia
SN12K1 renal = test system: SN12K1 renal
P388 leukemia = test system: P388 leukemia

Row | Structure (SMILES) | TGI (RXF-631 renal) | TGI (LXFL 529 NSCLC) | TGI (SNB-78 CNS) | TGI (DMS 114 small cell lung) | TGI (DMS 273 small cell lung) | TGI (XF 498 CNS) [µM] | TGI (HOP-18 NSCLC) [µM] | TGI (DLD-1 colon) | TGI (P388/ADR leukemia) [µM] | GI50 (DLD-1 colon) [µM] | GI50 (RXF-631 renal) [µM] | GI50 (LXFL 529 NSCLC) [µM] | TGI (SN12K1 renal) [µM] | GI50 (SNB-78 CNS) [µM] | GI50 (DMS 114 small cell lung) [µM] | TGI (P388 leukemia) [µM] | GI50 (DMS 273 small cell lung) [µM]
1 | O=C1CCC(NC(=O)Cc2ccc(O)cc2)C(=O)N1 (centres undefined) | > 2500 µM | > 2500 µM | > 2500 µM | > 2500 µM | > 2500 µM | > 2500 | > 2500 | – | – | – | – | – | – | – | – | – | –
2 | CC(=O)C1=C(O)C2(O)C(=O)c3c(c(C)c4ccc(C)c(O)c4c3O)CC2C(N)C1=O (centres undefined) | 11.2 µM | 10.2 µM | – | 7.17 µM | 5.54 µM | 5.09 | 13.4 | 11.7 µM | – | – | – | – | – | – | – | – | –
3 | Cc1c(N)nc([C@H](CC(N)=O)NC[C@H](N)C(N)=O)nc1C(=O)N[C@H](C(=O)N[C@H](C)[C@@H](O)[C@H](C)C(=O)N[C@H](C(=O)NCCc1nc(-c2nc(C(=O)NCCC[S+](C)C)cs2)cs1)[C@@H](C)O)C(OC1OC(CO)C(O)C(O)C1OC1OC(CO)C(O)C(OC(N)=O)C1O)c1cnc[nH]1 (some centres undefined) | 17.7 µM and 10.4 µM | 23.6 µM and > 29 µM | 24.9 µM and > 29 µM | 5.68 µM and 29 µM | 7.82 µM and 29 µM | 13.5 | 13.3 | 23.7 µM and > 29 µM | 20 | > 29 | 0.372 | > 29 | 21 | > 29 | 1.29 | 18.5 | 0.0709
4 | CN1CCC23c4ccccc4NC1C21CCN(C)C3Nc2ccccc21 | – | – | > 158 µM | > 375 µM | > 375 µM | – | > 375 | > 375 µM | > 375 | – | – | – | > 275 | – | – | > 124 | –
5 | Cc1c2c(cc3c1[nH]c1ccccc13)C(c1ccc(F)cc1)=NCC2 | – | – | 9.03 µM | 2.41 µM | 2.29 µM | 5.67 | 14.5 | 6.45 µM | 5 | – | – | – | 2.16 | – | – | 1.97 | –
6 | C=CCOCCCC(=O)C(=[N+]=[N-])C(=O)OC | > 100 µM | > 100 µM | > 100 µM | – | – | > 100 | > 100 | > 100 µM | – | – | – | – | – | – | – | – | –
